Laboratory results taken from PMC5765751 (Journal of the American Chemical Society, 2017).

Test: physchem
Format: physicochemical
Conditions: pH 6

O=C1NC(Cc2ccc(O)cc2)C(=O)NC1Cc1ccc(O)cc1 (stereo not shown) [cYY, 3,6-bis(4-hydroxybenzyl)piperazine-2,5-dione]
pKa: 9.9 ± 0.02
